One data set has as its target T1, histamine H3 receptor (Rattus norvegicus, UniProt Q9QYN8).
T1 construct: from tissue; host or cells: rat striatum (Sprague-Dawley, male, 6 weeks), membrane homogenate
The experiment in a line: Histamine H3 receptor binding assay ([3H]-Nα-methylhistamine binding to rat striatum homogenate). To be noted: 1 μmol/L test compound; [3H]-Nα-methylhistamine 1 nmol/L; striata of Sprague-Dawley male rats, 25° C., 1 hour; read-out: Inhibition ratio of [3H]-Nα-methylhistamine binding. Put shortly: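 Rat striatum membranes (20 μg protein) incubated with [3H]-Nα-methylhistamine 1 nmol/L in 50 mmol/L Tris/HCl pH 7.4, 5 mmol/L EDTA, 1 hour at 25° C; bound ligand by filtration and scintillation counting. Nonspecific binding defined with 10 μmol/L thioperamide; % inhibition reported at 1 μmol/L compound.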

T1 sequence (Q9QYN8 whole entry): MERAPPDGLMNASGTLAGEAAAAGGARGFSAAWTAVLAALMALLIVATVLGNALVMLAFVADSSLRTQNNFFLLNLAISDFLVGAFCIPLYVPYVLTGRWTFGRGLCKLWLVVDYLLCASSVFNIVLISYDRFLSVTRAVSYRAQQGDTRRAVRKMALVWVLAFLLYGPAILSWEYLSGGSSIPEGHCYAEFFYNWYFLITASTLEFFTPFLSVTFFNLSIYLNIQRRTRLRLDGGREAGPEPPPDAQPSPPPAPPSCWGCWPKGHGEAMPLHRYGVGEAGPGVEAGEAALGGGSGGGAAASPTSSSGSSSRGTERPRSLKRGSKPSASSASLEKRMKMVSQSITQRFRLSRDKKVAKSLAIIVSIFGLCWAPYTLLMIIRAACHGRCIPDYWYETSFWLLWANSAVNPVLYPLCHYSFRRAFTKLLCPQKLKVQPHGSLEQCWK

For orientation: melting point means the temperature, or range, at which the solid turns liquid. As for `N#CC(C#N)=C1N(CCCN2CCC[C@@H]2CO)CCN1CCCN1CCC[C@@H]1CO` [Compound 118, {1,3-Bis[3-((R)-2-hydroxymethylpyrrolidin-1-yl)propyl]imidazolidin-2-ylidene}malononitrile], the melting point was in the range of 79 to 80 °C. For the same compound, at histamine H3 receptor, the inhibition at 1 µM was at least 80%.

As for `N#CC(C#N)=C(NCCCN1CCCCC1)N1CCC(N2CCCC2)CC1` [Compound 158, {(3-Piperidinopropylamino)[4-(pyrrolidin-1-yl)piperidino]methylene}malononitrile], the melting point fell in the range of 114 to 116 °C. In addition, the inhibition at 1 µM at histamine H3 receptor is at least 80%.

In turn, `C#CC(C)(C)N1CCC(N2CCN(CCCN3CCCCC3)C2=C(C#N)C#N)CC1` [Compound 228, {1-[1-(1,1-Dimethyl-2-propynyl)piperidin-4-yl]-3-(3-piperidinopropyl)imidazolidin-2-ylidene}malononitrile] registered a melting point of 112 to 115 °C. Further, the inhibition at 1 µM at histamine H3 receptor is at least 80%.

Compound `C[C@@H]1CCCN1CCCN1CCN(CCN2CCC[C@H]2C)C1=C(C#N)C#N` [Compound 55, {1-[2-((R)-2-methylpyrrolidin-1-yl)ethyl]-3-[3-((R)-2-methylpyrrolidin-1-yl)propyl]imidazolidin-2-ylidene}malononitrile] registered a melting point of 74 to 75 °C. Besides, the inhibition at 1 µM on histamine H3 receptor is at least 80%.

As to `CC(C)N1CCC(N(C)C(=C(C#N)C#N)N2CCC(CN3CCCCC3)CC2)CC1` [Compound 179, {[N-(1-isopropylpiperidin-4-yl)-N-methylamino](4-piperidinomethylpiperidino)methylene}malononitrile], the melting point lay within 197 to 198 °C. The inhibition at 1 µM on histamine H3 receptor was at least 80%.

Turning to `N#CC(C#N)=C(NCCN1CCCCC1)N1CCC(CN2CCCCC2)CC1` [Compound 147, [(2-Piperidinoethylamino)(4-piperidinomethylpiperidino)methylene]malononitrile], the melting point fell in the range of 78 to 80 °C. In addition, the inhibition at 1 µM at histamine H3 receptor was at least 80%.

On to `CCN(CCCN1CCCCC1)C(=C(C#N)C#N)N1CCC(N2CCCCC2)CC1` [Compound 162, {[N-ethyl-N-(3-piperidinopropyl)amino](4-piperidinopiperidino)methylene}malononitrile], for which the melting point was 94 to 96 °C. Moreover, at histamine H3 receptor, the inhibition at 1 µM is at least 80%.

`C[C@@H]1CCCN1CCN1CCN(CCCN2CCC[C@@H]2C)C1=C(C#N)C#N` [Compound 196, {3-[2-((R)-2-methylpyrrolidin-1-yl)ethyl]-1-[3-((S)-2-methylpyrrolidin-1-yl)propyl]imidazolidin-2-ylidene}malononitrile] yielded a melting point of 94 to 95 °C. In addition, on histamine H3 receptor, the inhibition at 1 µM was at least 80%.

For `N#CCS(=O)(=O)C=C1N(CCCN2CCCCC2)CCN1CCCN1CCCCC1` [Compound 136, [1,3-Bis(3-piperidinopropyl)imidazolidin-2-ylidene]methanesulfonylacetonitrile], the melting point is 105 to 107 °C.

Compound `N#CC(C#N)=C(NC1CCN(Cc2ccccc2)CC1)NC1CCN(Cc2ccccc2)CC1` [Compound 239, [Bis(1-benzylpiperidin-4-ylamino)methylene]malononitrile] gave a melting point of 147 to 148 °C.

As to `C[C@@H]1CCCN1CCCN1CCN(CCCN2CCC[C@@H]2C)C1=C(C#N)C#N` [Compound 117], the melting point fell in the range of 87 to 89 °C. The inhibition at 1 µM on histamine H3 receptor was at least 80%.

In turn, `C[C@H]1CCCN1CCCN1CCN(CCCN2CCOCC2)C1=C(C#N)C#N` [Compound 201, {3-(3-Morpholinopropyl)-1-[3-((S)-2-methylpyrrolidin-1-yl)propyl]imidazolidin-2-ylidene}malononitrile] yielded a melting point of 72 to 73 °C. Moreover, at histamine H3 receptor, the inhibition at 1 µM was at least 80%.

In the case of `CN(CCN1CCCCC1)C(=C(C#N)C#N)N1CCC(N(C)c2ccccc2)CC1` [Compound 146, {[4-(N-methyl-N-phenylamino)piperidino][N-methyl-N-(2-piperidinoethyl)amino]methylene}malononitrile], the melting point fell in the range of 156 to 158 °C.

`N#CC(C#N)=C(NCCCN1CCCCC1)N1CCC(N2CCOCC2)CC1` [Compound 164, [(3-Piperidinopropylamino) (4-morpholinopiperidino)methylene]malononitrile] came in with a melting point of 122 to 124 °C.

Regarding `N#CC(C#N)=C1N(CCCN2CCCCC2)CCN1C1CCN(CC(F)(F)F)CC1` [Compound 225, {1-(3-Piperidinopropyl)-3-[1-(2,2,2-trifluoroethyl)piperidin-4-yl]imidazolidin-2-ylidene}malononitrile], the melting point is 103 to 105 °C.

In the case of `N#CC(C#N)=C1N(CCN2CCCCC2)c2ccccc2N1CCN1CCCCC1` [Compound 192, [1,3-Bis-(2-piperidinoethyl)benzimidazolidin-2-ylidene]malononitrile], the melting point is 127 to 128 °C.

The compound `N#CC(C#N)=C(NCCCN1CCCCC1)N1CCN(C2CCCCC2)CC1` [Compound 183, [(4-Cyclohexylpiperazin-1-yl)(3-piperidinopropylamino)methylene]malononitrile] registered a melting point of 136 to 137 °C.

For the compound `C[C@H]1CCCN1CCCN1CCN(CCCN2CCC[C@@H]2C)C1=CS(=O)(=O)CC#N` [Compound 138, {1,3-Bis[3-((S)-2-methylpyrrolidin-1-yl)propyl]imidazolidin-2-ylidene}methanesulfonylacetonitrile], the melting point was in the range of 91 to 93 °C.

Consider `CC1CC(C)CN(CCCN2CCN(CCCN3CCCCC3C)C2=C(C#N)C#N)C1` (stereo not shown) [Compound 104, {1-[3-(3,5-Dimethylpiperidino)propyl]-3-[3-(2-methylpiperidino)propyl]imidazolidin-2-ylidene}malononitrile], for which the inhibition at 1 µM on histamine H3 receptor is at least 80%.

`N#CC(C#N)=C1N(CCCN2CCCCC2)CCN1CCCN1CCCC1` [Compound 95, {1-(3-Piperidinopropyl)-3-[3-(pyrrolidin-1-yl)propyl]imidazolidin-2-ylidene}malononitrile]: the inhibition at 1 µM at histamine H3 receptor was at least 80%.

For the compound `C[C@H]1CCCN1CCCN1C(=C(C#N)C#N)N(CCCN2CCC[C@@H]2C)c2ccccc21` [Compound 125, {1,3-Bis[3-((S)-2-methylpyrrolidin-1-yl)propyl]benzimidazolidin-2-ylidene}malononitrile], the inhibition at 1 µM on histamine H3 receptor is at least 80%.

In the case of `N#CC(C#N)=C1N(CCCN2CCOCC2)CCN1C1CCN(CCF)CC1` [Compound 222, {1-[1-(2-Fluoroethyl)piperidin-4-yl]-3-(3-morpholinopropyl)imidazolidin-2-ylidene}malononitrile], at histamine H3 receptor, the inhibition at 1 µM was at least 80%.

Consider `CC1CCCN(CCN2CCN(CCCN3CCC[C@@H]3C)C2=C(C#N)C#N)C1` (stereo partly drawn) [Compound 199, {3-[2-(3-Methylpiperidino)ethyl]-1-[3-((S)-2-methylpyrrolidin-1-yl)propyl]imidazolidin-2-ylidene}malononitrile], for which the inhibition at 1 µM at histamine H3 receptor was at least 80%.

For the compound `CC1CC(C)CN(CCCN2CCN(CCCN3CCCCCC3)C2=C(C#N)C#N)C1` (stereo not shown) [Compound 70, {1-[3-(Azepan-1-yl)propyl]-3-[3-(3,5-dimethylpiperidino)propyl]imidazolidin-2-ylidene}malononitrile], the inhibition at 1 µM at histamine H3 receptor is at least 80%.

The values above are taken from US20090181948A1, “DIAMINE DERIVATIVE” (KYOWA HAKKO KOGYO CO., LTD., priority 2005, published 2009).
